From patent publication US7842672B2, “Phosphonate inhibitors of HCV” (Gilead Sciences, Inc., priority 2006, dated 2010)

Tests used:
[1] = test system: HCV replicon cells (Huh7); experiment: HCV replicon assay (HCV EC50 determination, luciferase readout); format: cell-based; conditions: for inhibition at 250 µM: Concentration tested 250 micromolar
Description: Replicon cells were seeded in 96-well plates at a density of 8×10^3 cells per well in 100 μL of culture medium, excluding Geneticin. Compound was serially diluted in 100% DMSO and then added to the cells at a 1:200 dilution, achieving a final concentration of 0.5% DMSO and a total volume of 200 μL. Plates were incubated at 37° C. for 3 days, after which culture medium was removed and cells were lysed in lysis buffer provided by Promega's luciferase assay system. Following the manufacturer's instruction, 100 μL of luciferase substrate was added to the lysed cells and luciferase activity was measured in a TopCount luminometer.

HCV NS5b polymerase = HCV NS5b polymerase (Hepatitis C virus genotype 1b, UniProt Q9WMX2); experiment: NS5b polymerase assay (HCV IC50 determination); format: biochemical; conditions: Concentration tested 200 micromolar
Description: Assay Protocol: NS5b polymerase assay (40 μL) was assembled by adding 28 μL polymerase mixture (final concentration: 50 mM Tris-HCl at pH 7.5, 10 mM KCL, 5 mM MgCl2, 1 mM DTT, 10 mM EDTA, 4 ng/μL of RNA template, and 75 nM HCV ? 21 NS5b polymerase) to assay plates followed by 4 μL of compound dilution. The polymerase and compound were pre-incubated at 35° C. for 10 minute before the addition of 8 μL of nucleotide substrate mixture (33P- ? -labeled competing nucleotide at KM and 0.5 mM of the remaining three nucleotides). The assay plates were covered and incubated at 35° C. for 90 min. Reactions were then filtered through 96-well DEAE-81 filter plates via vacuum. The filter plates were then washed under vacuum with multiple volumes of 0.125 M NaHPO4, water, and ethanol to remove unincorporated label. Plates were then counted on TopCount to assess the level of product synthesis over background controls. The IC50 value was determined using Prism fitting program.

Structure (SMILES)	inhibition at 250 µM ([1]; Hepatitis C virus, Huh-7) [%]	further results
Nc1nc2c(ncn2C2OC(OCP(=O)(O)O)CC2O)c(=O)[nH]1 (stereo not drawn) [Compound 5.2, [5-(2-Amino-6-oxo-1,6-dihydro-purin-9-yl)-4-hydroxy-tetrahydro-furan-2-yloxymethyl]-phosphonic acid]	27.2	
NC(=O)c1ncn(C2OC(OCP(=O)(O)O)CC2O)n1 (stereo not drawn) [Compound 8.3, [5-(3-Carbamoyl-[1,2,4]triazol-1-yl)-4-hydroxy-tetrahydro-furan-2-yloxymethyl]-phosphonic acid]	18.5	
NC(=O)c1ncn([C@@H]2O[C@H](OCP(=O)(O)OP(=O)(O)OP(=O)(O)O)C[C@H]2O)n1 [Compound 9.4, Diphosphate of [5-(3-Carbamoyl-[1,2,4]triazol-1-yl)-4-hydroxy-tetrahydro-furan-2-yloxymethyl]-phosphonic acid]		inhibition at 200 µM (HCV NS5b polymerase): 65.5%
CCCCOC(=O)[C@H](C)NP(=O)(CO[C@@H]1C[C@@H](O)[C@H](n2cnc(C(N)=O)n2)O1)N[C@@H](C)C(=O)OCCCC [Compound 9.5, Bis (Alanine-n-butyl ester) phosphonamidate pro drug of [5-(3-carbamoyl-[1,2,4]triazol-1-yl)-4-hydroxy-tetrahydro-furan-2-yloxymethyl]-phosphonic acid]		inhibition at 50 µM ([1]; Hepatitis C virus, Huh-7, Concentration tested 50 micromolar): 1.1%
C[C@]1(OCP(=O)(O)O)O[C@@H](n2ccc(=O)[nH]c2=O)[C@H](O)[C@@H]1O [Compound 32.4, ((2R,3S,4R,5R)-5-(2,4-dioxo-3,4-dihydropyrimidin-1(2H)-yl)-3,4-dihydroxy-2-methyl-tetrahydrofuran-2-yloxy)methylphosphonic acid]	14.8	
CCCCOC(=O)[C@H](C)NP(=O)(CO[C@H]1O[C@@H](n2ccc(N)cc2=O)[C@H](O)[C@@H]1O)N[C@@H](C)C(=O)OCCCC [Compound 32.5]		% Inhibition of replicon ([1]; Concentration tested 500 micromolar): 37.5%
